# Experimental data from patent US20250034136A1 (Nimbus Wadjet, Inc., priority 2023, published 2025).
# Where two headings read alike, the source gives them in different places.
# Columns and labels:
# [1] = biological target: WRN (BV08), human Werner helicase (Uniprot Q14191, amino acids 517-1235 with L1074F point mutation) (Homo sapiens (Human), UniProt Q14191, L1074F); assay: WRN (BV08) ADP-Glo assay; format: biochemical; settings: class symbols A-E, read-out: ADP-Glo_hWRN_IC50
# [2] = tested on: p21 induction in HCT116 cells; assay: p21 induction in HCT116 cells; format: cell-based; settings: read-out: P21_EC50
# How it was run: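 HCT116 cells, 2,000/well, treated 24 h at 37 °C with 11-point compound dilutions in duplicate. Fixed, then immunostained for p21 and GAPDH and read by near-IR imaging at 800/700 nm. Normalized to DMSO (low) and reference WRN inhibitor (high) controls; EC50 from non-linear regression.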
# [3] = Homo sapiens, HCT-116, 24 h, HCT116 cells, 24 h compound incubation
# [4] = HCT116 cells, 24 h compound incubation
# Sequence of WRN (BV08), human Werner helicase (Uniprot Q14191, amino acids 517-1235 with L1074F point mutation) (Q14191 other isoform, or with tags, fused parts or gaps L1074F (already in the parent)): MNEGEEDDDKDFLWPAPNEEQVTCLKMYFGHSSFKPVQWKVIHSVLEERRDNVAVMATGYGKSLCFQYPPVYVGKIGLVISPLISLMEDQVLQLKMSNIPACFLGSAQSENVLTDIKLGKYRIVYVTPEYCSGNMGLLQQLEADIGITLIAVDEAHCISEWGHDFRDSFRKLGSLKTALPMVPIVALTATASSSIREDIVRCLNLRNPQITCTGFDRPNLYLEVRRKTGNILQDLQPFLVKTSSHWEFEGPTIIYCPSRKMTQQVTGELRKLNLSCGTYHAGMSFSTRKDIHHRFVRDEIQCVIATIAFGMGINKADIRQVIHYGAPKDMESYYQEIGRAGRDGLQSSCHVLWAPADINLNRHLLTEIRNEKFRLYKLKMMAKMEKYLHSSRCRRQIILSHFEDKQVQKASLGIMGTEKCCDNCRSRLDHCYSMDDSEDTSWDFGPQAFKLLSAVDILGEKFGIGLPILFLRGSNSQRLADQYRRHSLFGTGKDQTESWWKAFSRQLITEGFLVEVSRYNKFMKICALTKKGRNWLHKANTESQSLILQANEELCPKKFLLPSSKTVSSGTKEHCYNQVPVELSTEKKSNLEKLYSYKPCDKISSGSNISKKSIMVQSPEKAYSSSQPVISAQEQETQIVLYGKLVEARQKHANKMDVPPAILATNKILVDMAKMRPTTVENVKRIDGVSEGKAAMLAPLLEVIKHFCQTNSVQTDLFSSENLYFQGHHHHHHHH
IC50 [1] [nM],"EC50 [2, 3] [nM]","EC50 [2, 4] [nM]",SMILES,"EC50 ([2]; Homo sapiens, HCT-116, 24 h) [nM]"
5 to 50,500 to 2000,–,"CCc1c([C@]23CCN(C(=O)c4ncnc(C)c4O)C[C@H]2C3)c(=O)c2nc(N(C)C)cnc2n1CC(=O)Nc1ccc(C(F)(F)F)cc1Cl (single isomer, unassigned) [I-277, N-(2-chloro-4-(trifluoromethyl)phenyl)-2-(2-(dimethylamino)-6-ethyl-7-(3-(5-hydroxy-6-methylpyrimidine-4-carbonyl)-3-azabicyclo[4.1.0]heptan-6-yl)-8-oxopyrido[2,3-b]pyrazin-5(8H)-yl)acetamide]",–
5 to 50,–,2000 to 5000,"CCc1c(N2CCN(C(=O)c3ncnc(C)c3O)C3COCC32)c(=O)c2nc(N(C)C)cnc2n1CC(=O)Nc1ccc(C(F)(F)F)cc1Cl (single isomer, unassigned) [I-278, N-(2-chloro-4-(trifluoromethyl)phenyl)-2-(2-(dimethylamino)-6-ethyl-7-(4-(5-hydroxy-6-methylpyrimidine-4-carbonyl)hexahydrofuro[3,4-b]pyrazin-1(2H)-yl)-8-oxopyrido[2,3-b]pyrazin-5(8H)-yl)acetamide]",–
100 to 500,–,> 5000,"CCc1c(N2CCN(C(=O)c3ncnc(C)c3O)C3COCC32)c(=O)c2nc(N(C)C)cnc2n1CC(=O)Nc1ccc(C(F)(F)F)cc1Cl (single isomer, unassigned) [I-279, N-(2-chloro-4-(trifluoromethyl)phenyl)-2-(2-(dimethylamino)-6-ethyl-7-(4-(5-hydroxy-6-methylpyrimidine-4-carbonyl)hexahydrofuro[3,4-b]pyrazin-1(2H)-yl)-8-oxopyrido[2,3-b]pyrazin-5(8H)-yl)acetamide]",–
> 500,–,> 5000,"CCc1c(N2CCN(C(=O)c3ncnc(C)c3O)C3COCC32)c(=O)c2nc(N(C)C)cnc2n1CC(=O)Nc1ccc(C(F)(F)F)cc1Cl (single isomer, unassigned) [I-294, N-(2-chloro-4-(trifluoromethyl)phenyl)-2-(2-(dimethylamino)-6-ethyl-7-(4-(5-hydroxy-6-methylpyrimidine-4-carbonyl)hexahydrofuro[3,4-b]pyrazin-1(2H)-yl)-8-oxopyrido[2,3-b]pyrazin-5(8H)-yl)acetamide]",–
5 to 50,500 to 2000,–,"CCc1c(N2CCN(C(=O)c3ncnc(C)c3O)[C@H]3CC(F)(F)C[C@@H]32)c(=O)c2nc(N(C)C)cnc2n1CC(=O)Nc1ccc(C(F)(F)F)cc1Cl (single isomer, unassigned) [I-296, N-(2-chloro-4-(trifluoromethyl)phenyl)-2-(7-(6,6-difluoro-4-(5-hydroxy-6-methylpyrimidine-4-carbonyl)octahydro-1H-cyclopenta[b]pyrazin-1-yl)-2-(dimethylamino)-6-ethyl-8-oxopyrido[2,3-b]pyrazin-5(8H)-yl)acetamide]",–
100 to 500,> 5000,–,"CCc1c(N2CCN(C(=O)c3ncnc(C)c3O)[C@@H]3CC(F)(F)C[C@H]32)c(=O)c2nc(N(C)C)cnc2n1CC(=O)Nc1ccc(C(F)(F)F)cc1Cl (single isomer, unassigned) [I-297, N-(2-chloro-4-(trifluoromethyl)phenyl)-2-(7-(6,6-difluoro-4-(5-hydroxy-6-methylpyrimidine-4-carbonyl)octahydro-1H-cyclopenta[b]pyrazin-1-yl)-2-(dimethylamino)-6-ethyl-8-oxopyrido[2,3-b]pyrazin-5(8H)-yl)acetamide]",–
50 to 100,> 5000,–,"CCc1c(N2CCN(C(=O)c3ncnc(C)c3O)[C@@H](COC)C2)c(=O)c2nc(N(C)C)cnc2n1CC(=O)Nc1ccc(C(F)(F)F)cc1Cl (single isomer, unassigned) [I-303, N-(2-chloro-4-(trifluoromethyl)phenyl)-2-(2-(dimethylamino)-6-ethyl-7-(4-(5-hydroxy-6-methylpyrimidine-4-carbonyl)-3-(methoxymethyl)piperazin-1-yl)-8-oxopyrido[2,3-b]pyrazin-5(8H)-yl)acetamide]",–
5 to 50,> 5000,–,"CCc1c(N2CCN(C(=O)c3ncnc(C)c3O)CC2)c(=O)c2nc(C3CC3(F)F)cnc2n1CC(=O)Nc1ccc(C(F)(F)F)cc1Cl (stereo in doubt) [I-237, N-[2-chloro-4-(trifluoromethyl)phenyl]-2-{2-[(1R)-2,2-difluorocyclopropyl]-6-ethyl-7-[4-(5-hydroxy-6-methylpyrimidine-4-carbonyl)piperazin-1-yl]-8-oxo-5H,8H-pyrido[2,3-b]pyrazin-5-yl}acetamide]",–
50 to 100,> 5000,–,"CCc1c(N2CCN(C(=O)c3cnn(C)c3)CC2)c(=O)c2ncc(C)nc2n1CC(=O)Nc1ccc(C(F)(F)F)cc1Cl [I-2, N-(2-chloro-4-(trifluoromethyl)phenyl)-2-(6-ethyl-3-methyl-7-(4-(1-methyl-1H-pyrazole-4-carbonyl)piperazin-1-yl)-8-oxopyrido[2,3-b]pyrazin-5(8H)-yl)acetamide]",–
5 to 50,> 5000,–,"CCc1c(N2CCN(C(=O)c3ncccc3O)CC2)c(=O)c2ncc(C)nc2n1CC(=O)Nc1ccc(C(F)(F)F)cc1Cl [I-3, N-(2-chloro-4-(trifluoromethyl)phenyl)-2-(6-ethyl-7-(4-(3-hydroxypicolinoyl)piperazin-1-yl)-3-methyl-8-oxopyrido[2,3-b]pyrazin-5(8H)-yl)acetamide]",–
5 to 50,> 5000,–,"CCc1c(N2CCN(C(=O)c3ccnc(OC)c3O)CC2)c(=O)c2ncc(C)nc2n1CC(=O)Nc1ccc(C(F)(F)F)cc1Cl [I-4, N-(2-chloro-4-(trifluoromethyl)phenyl)-2-(6-ethyl-7-(4-(3-hydroxy-2-methoxyisonicotinoyl)piperazin-1-yl)-3-methyl-8-oxopyrido[2,3-b]pyrazin-5(8H)-yl)acetamide]",–
100 to 500,> 5000,–,"CCc1c(N2CCN(C(C)=O)CC2)c(=O)c2ncc(C)nc2n1CC(=O)Nc1ccc(C(F)(F)F)cc1Cl [I-5, 2-(7-(4-acetylpiperazin-1-yl)-6-ethyl-3-methyl-8-oxopyrido[2,3-b]pyrazin-5(8H)-yl)-N-(2-chloro-4-(trifluoromethyl)phenyl)acetamide]",–
5 to 50,2000 to 5000,–,"CCc1c(N2CCN(C(=O)c3c(O)ccnc3OC)CC2)c(=O)c2ncc(C)nc2n1CC(=O)Nc1ccc(C(F)(F)F)cc1Cl [I-6, N-(2-chloro-4-(trifluoromethyl)phenyl)-2-(6-ethyl-7-(4-(4-hydroxy-2-methoxynicotinoyl)piperazin-1-yl)-3-methyl-8-oxopyrido[2,3-b]pyrazin-5(8H)-yl)acetamide]",–
5 to 50,> 5000,–,"CCc1c(N2CCN(C(=O)c3ncnc(C)c3O)CC2)c(=O)c2nc(-c3ccnc(OC)c3)cnc2n1CC(=O)Nc1ccc(C(F)(F)F)cc1Cl [I-7, N-(2-chloro-4-(trifluoromethyl)phenyl)-2-(6-ethyl-7-(4-(5-hydroxy-6-methylpyrimidine-4-carbonyl)piperazin-1-yl)-2-(2-methoxypyridin-4-yl)-8-oxopyrido[2,3-b]pyrazin-5(8H)-yl)acetamide]",–
5 to 50,500 to 2000,–,"C/C=C/c1cnc2c(n1)c(=O)c(N1CCN(C(=O)c3ncnc(C)c3O)CC1)c(CC)n2CC(=O)Nc1ccc(C(F)(F)F)cc1Cl [I-8, (E)-N-(2-chloro-4-(trifluoromethyl)phenyl)-2-(6-ethyl-7-(4-(5-hydroxy-6-methylpyrimidine-4-carbonyl)piperazin-1-yl)-8-oxo-2-(prop-1-en-1-yl)pyrido[2,3-b]pyrazin-5(8H)-yl)acetamide]",–
5 to 50,500 to 2000,–,"C=C(C)c1cnc2c(n1)c(=O)c(N1CCN(C(=O)c3ncnc(C)c3O)CC1)c(CC)n2CC(=O)Nc1ccc(C(F)(F)F)cc1Cl [I-9, N-(2-chloro-4-(trifluoromethyl)phenyl)-2-(6-ethyl-7-(4-(5-hydroxy-6-methylpyrimidine-4-carbonyl)piperazin-1-yl)-8-oxo-2-(prop-1-en-2-yl)pyrido[2,3-b]pyrazin-5(8H)-yl)acetamide]",–
5 to 50,2000 to 5000,–,"CCc1c(N2CCN(C(=O)c3ncnc(C)c3O)CC2)c(=O)c2nc(C3CC3)cnc2n1CC(=O)Nc1ccc(C(F)(F)F)cc1Cl [I-10, N-(2-chloro-4-(trifluoromethyl)phenyl)-2-(2-cyclopropyl-6-ethyl-7-(4-(5-hydroxy-6-methylpyrimidine-4-carbonyl)piperazin-1-yl)-8-oxopyrido[2,3-b]pyrazin-5(8H)-yl)acetamide]",–
5 to 50,2000 to 5000,–,"CC#Cc1cnc2c(n1)c(=O)c(N1CCN(C(=O)c3ncnc(C)c3O)CC1)c(CC)n2CC(=O)Nc1ccc(C(F)(F)F)cc1Cl [I-11, N-(2-chloro-4-(trifluoromethyl)phenyl)-2-(6-ethyl-7-(4-(5-hydroxy-6-methylpyrimidine-4-carbonyl)piperazin-1-yl)-8-oxo-2-(prop-1-yn-1-yl)pyrido[2,3-b]pyrazin-5(8H)-yl)acetamide]",–
5 to 50,> 5000,–,"CCc1c(N2CCN(C(=O)c3ncnc(C)c3O)CC2)c(=O)c2nc(OC)c(C)nc2n1CC(=O)Nc1ccc(C(F)(F)F)cc1Cl [I-12, N-(2-chloro-4-(trifluoromethyl)phenyl)-2-(6-ethyl-7-(4-(5-hydroxy-6-methylpyrimidine-4-carbonyl)piperazin-1-yl)-2-methoxy-3-methyl-8-oxopyrido[2,3-b]pyrazin-5(8H)-yl)acetamide]",–

SMILES,IC50 [1] [nM],"EC50 [2, 3] [nM]","EC50 [2, 4] [nM]","EC50 ([2]; Homo sapiens, HCT-116, 24 h) [nM]"
"CCc1c(N2CCN(C(=O)c3ncnc(C)c3O)CC2)c(=O)c2ncc(C)nc2n1CC(=O)Nc1ccc(C(F)(F)F)cc1Cl [I-1, N-(2-chloro-4-(trifluoromethyl)phenyl)-2-(6-ethyl-7-(4-(5-hydroxy-6-methylpyrimidine-4-carbonyl)piperazin-1-yl)-3-methyl-8-oxopyrido[2,3-b]pyrazin-5(8H)-yl)acetamide]",5 to 50,–,–,2000 to 5000
